Experimental data reported in patent publication US20240360177A1, “PEPTIDES WITH ANTIMICROBIAL ACTIVITIES” (priority 2021, published 2024).
≈ marks a conversion by molar mass, not a printed value. Non-standard residues stand in square brackets, D forms with d. Residues, ends and D or L forms follow the SMILES beside them. Aoc = NCCCCCCCC(=O)O

Tests used:
C. glabrata = settings: 24 h
C. auris = settings: 24 h
C. albicans = settings: 24 h
C. parapsilosis = settings: 24 h
Scedosporium spp. = settings: 72 h
C. krusei = settings: 24 h
C. neoformans = settings: 72 h
C. dubliniensis = settings: 24 h
C. tropicalis = settings: 24 h
C. gattii = settings: 72 h
Fusarium spp. = settings: 48 h

Row | SMILES | MIC C. glabrata (C. glabrata) [µg/mL] | MIC C. auris (C. auris) [µg/mL] | MIC C. albicans (C. albicans) [µg/mL] | MIC C. parapsilosis (C. parapsilosis) [µg/mL] | MIC Range Scedosporium spp. (Scedosporium spp.) [µg/mL] | MIC C. krusei (C. krusei) [µg/mL] | MIC C. neoformans (C. neoformans) [µg/mL] | MIC C. dubliniensis (C. dubliniensis) [µg/mL] | MIC C. tropicalis (C. tropicalis) [µg/mL] | MIC C. gattii (C. gattii) [µg/mL] | MIC Range Fusarium spp. (Fusarium spp.) [µg/mL] | MIC Range Lomentospora prolificans (Lomentospora prolificans) [µg/mL]
1 | CC(=O)N[C@H](CCCNC(=N)N)C(=O)N[C@@H](CCCNC(=N)N)C(=O)N[C@H](CCCNC(=N)N)C(=O)NCCCCCCCC(=O)N[C@H](CCCNC(=N)N)C(=O)N[C@@H](CCCNC(=N)N)C(=O)N[C@H](CCCNC(=N)N)C(=O)NCCCCCCCC(=O)N[C@H](CCCNC(=N)N)C(=O)N[C@@H](CCCNC(=N)N)C(=O)N[C@H](CCCNC(=N)N)C(=O)N[C@@H](CCCNC(=N)N)C(=O)NCCCCCCCC(=O)N[C@H](CCCNC(=N)N)C(=O)N[C@@H](CCCNC(=N)N)C(=O)N[C@H](CCCNC(=N)N)C(=O)N[C@@H](CCCNC(=N)N)C(N)=O [SEQ ID NO: 31, CH3CONH-rRr-(Aoa)-rRr-(Aoa)-rRrR-(Aoa)-rRrR-NH2] (Ac-[dR]R[dR][Aoc][dR]R[dR][Aoc][dR]R[dR]R[Aoc][dR]R[dR]R-NH2) | 1 (≈ 0.375 µM) | 0.5 (≈ 0.187 µM) | 1 (≈ 0.375 µM) | 0.25 (≈ 0.0937 µM) | 0.5 to 2 | 0.5 (≈ 0.187 µM) | 0.5 (≈ 0.187 µM) | 1 (≈ 0.375 µM) | 0.5 (≈ 0.187 µM) | 0.5 (≈ 0.187 µM) | 0.25 to 4 | 2 (≈ 0.749 µM)
2 | N=C(N)NCCC[C@@H](N)C(=O)N[C@@H](CCCNC(=N)N)C(=O)N1CCC[C@H]1C(=O)N[C@H](CCCNC(=N)N)C(=O)N[C@@H](CCCNC(=N)N)C(=O)N[C@H](CCCNC(=N)N)C(=O)N1CCC[C@H]1C(=O)N[C@H](CCCNC(=N)N)C(=O)N[C@@H](CCCNC(=N)N)C(=O)N1CCC[C@H]1C(=O)N[C@H](CCCNC(=N)N)C(=O)N[C@@H](CCCNC(=N)N)C(=O)N[C@H](CCCNC(=N)N)C(N)=O [SEQ ID NO: 72, rR-P-rRr-P-rR-P-rRr-NH2] (H-[dR]RP[dR]R[dR]P[dR]RP[dR]R[dR]-NH2) | 1 (≈ 0.535 µM) | >32 | 2 (≈ 1.07 µM) | 0.25 (≈ 0.134 µM) | 16 (≈ 8.55 µM) | 2 (≈ 1.07 µM) | 16 (≈ 8.55 µM) | 2 (≈ 1.07 µM) | 0.5 (≈ 0.267 µM) | 4 (≈ 2.14 µM) |  | 32 (≈ 17.1 µM)
3 | N=C(N)NCCC[C@@H](N)C(=O)N[C@@H](CCCNC(=N)N)C(=O)N1CCC[C@H]1C(=O)N[C@H](CCCNC(=N)N)C(=O)N[C@@H](CCCNC(=N)N)C(=O)N1CCC[C@H]1C(=O)N[C@H](CCCNC(=N)N)C(=O)N[C@@H](CCCNC(=N)N)C(=O)N[C@H](CCCNC(=N)N)C(=O)N1CCC[C@H]1C(=O)N[C@H](CCCNC(=N)N)C(=O)N[C@@H](CCCNC(=N)N)C(=O)N[C@H](CCCNC(=N)N)C(N)=O [SEQ ID NO: 73, rR-P-rR-P-rRr-P-rRr-NH2] (H-[dR]RP[dR]RP[dR]R[dR]P[dR]R[dR]-NH2) | 1 (≈ 0.535 µM) | >32 | 1 (≈ 0.535 µM) | 0.5 (≈ 0.267 µM) | 8 to 16 | 2 (≈ 1.07 µM) | 8 (≈ 4.28 µM) | 2 (≈ 1.07 µM) | 1 (≈ 0.535 µM) | 2 (≈ 1.07 µM) |  | 32 (≈ 17.1 µM)
